Laboratory results taken from paper PMC12647591, “Evolution, structure and function of L-cysteine desulfidase, an enzyme involved in sulfur metabolism in the methanogenic archeon Methanococcus maripaludis” (Communications Biology, 2025).
Residue numbers refer to the chain shown, from its start. Blank lines part the entries; values can stand above or below the molecule they belong to.

How the values were obtained:
[1] = biological target: T1, L-cysteine desulfidase CyuA (MmCyuA) (Methanococcus maripaludis, UniProt Q6LX84); assay: pyruvate formation assay ([…],4-dinitrophenylhydrazine), Lineweaver-Burk and Dixon plots; assay type: biochemical; parameters: gene MMP1468; holo-MmCyuA, recombinant, His-tag removed
[2] = biological target: T1, L-cysteine desulfidase CyuA (MmCyuA); assay: crystal structure, […] Å (from crystallization solution); assay type: binding; parameters: gene MMP1468; [2Fe-2S]-MmCyuA, molecule A
[3] = biological target: T2, L-cysteine desulfidase CyuA (MmCyuA) (Methanococcus maripaludis, UniProt Q6LX84, C289A); assay: crystal structure, […] Å (from cryoprotectant); assay type: binding
T2 construct: gene MMP1468; holo-C289A-MmCyuA
T2 sequence (Q6LX84 1-396 C289A): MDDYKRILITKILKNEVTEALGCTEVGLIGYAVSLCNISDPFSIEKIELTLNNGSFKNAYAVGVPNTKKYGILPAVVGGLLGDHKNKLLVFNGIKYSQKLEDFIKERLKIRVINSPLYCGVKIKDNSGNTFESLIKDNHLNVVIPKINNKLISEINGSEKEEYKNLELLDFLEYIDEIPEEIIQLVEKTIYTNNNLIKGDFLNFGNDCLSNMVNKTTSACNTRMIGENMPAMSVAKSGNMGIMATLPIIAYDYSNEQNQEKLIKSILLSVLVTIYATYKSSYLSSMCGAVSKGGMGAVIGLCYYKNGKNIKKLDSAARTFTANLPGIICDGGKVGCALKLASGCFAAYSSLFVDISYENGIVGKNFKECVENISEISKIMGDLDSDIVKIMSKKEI

[4] = biological target: the molecule itself; assay: SEC-MALS; apo-MmCyuA (cluster removed with dithionite and EDTA), 100 uL at 2 mg/mL on Superdex 200 10/300 GL Increase, 50 mM Tris-HCl pH 8.5, 300 mM NaCl, 5 mM DTT

T1 sequence (Q6LX84 whole entry): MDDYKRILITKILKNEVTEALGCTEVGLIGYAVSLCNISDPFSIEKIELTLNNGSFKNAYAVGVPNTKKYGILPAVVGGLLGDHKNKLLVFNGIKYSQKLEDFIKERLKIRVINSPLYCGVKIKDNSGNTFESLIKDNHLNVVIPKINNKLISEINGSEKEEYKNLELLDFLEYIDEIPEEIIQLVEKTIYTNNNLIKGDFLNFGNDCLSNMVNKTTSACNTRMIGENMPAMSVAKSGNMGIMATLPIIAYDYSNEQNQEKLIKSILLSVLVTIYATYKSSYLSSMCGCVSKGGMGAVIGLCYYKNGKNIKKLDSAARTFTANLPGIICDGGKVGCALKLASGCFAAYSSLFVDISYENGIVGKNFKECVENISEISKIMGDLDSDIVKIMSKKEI

Ki [1]: 15 ± 0.3 µM
Molecule: N[C@@H](CO)C(=O)O [L-serine]

Molecule: O=S(=O)(O)CCN1CCOCC1 [2-(N-morpholino)ethanesulfonic acid]
crystal structure, 2.42 Å (from crystallization solution) [2]: sulfonate group of MES and the chloride ion were located at the same anion binding site

Molecule: OCC(O)CO [GOL, glycerol]
crystal structure, 3.18 Å (from cryoprotectant) [3]: One terminal hydroxyl of the glycerol molecule was coordinated to that Fe atom

B1: L-cysteine desulfidase CyuA from Methanococcus maripaludis (enzyme, Methanococcus maripaludis strain S2)
chain: T2 sequence (Q6LX84 1-396 C289A) with A289C
notes: L-cysteine desulfidase CyuA (MmCyuA), product of the mmp1468 gene of Methanococcus maripaludis strain S2 (NC_005791.1); synthetic codon-optimised gene in pET15b between NdeI and BamHI; theoretical mass of the monomer 43.7 kDa; the synthetic mmp1468 gene appears to have been cloned whole; Holo form carries one [4Fe-4S] cluster per monomer (Cys287, Cys289, Cys329, Cys336); in crystal 2 a [2Fe-2S] …
stoichiometry N [4]: 2
